Experimental data reported in article PMC7915277, “Biochemical and Computational Studies of the Interaction between a Glucosamine Derivative, NAPA, and the IKKα Kinase” (International Journal of Molecular Sciences, 2021).

Molecular target: T1, IKKα (Homo sapiens, UniProt O15111)
T1 construct: gene CHUK; recombinant IKKα (Invitrogen), described as a monomer
T1 sequence (O15111 1-745): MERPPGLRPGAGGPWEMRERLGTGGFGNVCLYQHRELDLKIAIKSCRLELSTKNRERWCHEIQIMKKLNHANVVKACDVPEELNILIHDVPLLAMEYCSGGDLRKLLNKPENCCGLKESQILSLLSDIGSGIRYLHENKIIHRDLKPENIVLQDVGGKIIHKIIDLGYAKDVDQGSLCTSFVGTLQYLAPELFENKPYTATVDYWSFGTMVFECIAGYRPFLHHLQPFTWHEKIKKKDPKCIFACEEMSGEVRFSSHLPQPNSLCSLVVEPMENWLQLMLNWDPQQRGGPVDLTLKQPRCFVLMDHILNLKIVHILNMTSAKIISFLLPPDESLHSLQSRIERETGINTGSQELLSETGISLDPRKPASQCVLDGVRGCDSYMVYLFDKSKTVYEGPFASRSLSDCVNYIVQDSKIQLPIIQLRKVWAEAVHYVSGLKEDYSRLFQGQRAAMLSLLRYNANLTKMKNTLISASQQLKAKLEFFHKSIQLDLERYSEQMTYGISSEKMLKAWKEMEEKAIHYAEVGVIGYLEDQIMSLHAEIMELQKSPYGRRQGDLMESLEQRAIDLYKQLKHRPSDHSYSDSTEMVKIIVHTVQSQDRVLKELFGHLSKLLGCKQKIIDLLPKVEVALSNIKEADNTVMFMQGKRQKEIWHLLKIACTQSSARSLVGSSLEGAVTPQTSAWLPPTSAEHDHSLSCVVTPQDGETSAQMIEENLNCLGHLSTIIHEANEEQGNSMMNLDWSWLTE
Assay: in vitro kinase assay with recombinant IKKα and IKKtide, UPLC-MS readout
Assay type: biochemical

For `CC(=O)N[C@@H](Cc1ccccc1)C(=O)N[C@@H]1[C@@H](O)[C@H](O)[C@@H](CO)O[C@H]1O` [NAPA, 2-(N-Acetyl)-L-phenylalanylamido-2-deoxy-β -D-glucose], the IC50 was 500 ± 86 µM.
